One test deals with T1, C-X-C chemokine receptor type 2 (Homo sapiens, UniProt P25025).
T1 sequence (P25025 whole entry): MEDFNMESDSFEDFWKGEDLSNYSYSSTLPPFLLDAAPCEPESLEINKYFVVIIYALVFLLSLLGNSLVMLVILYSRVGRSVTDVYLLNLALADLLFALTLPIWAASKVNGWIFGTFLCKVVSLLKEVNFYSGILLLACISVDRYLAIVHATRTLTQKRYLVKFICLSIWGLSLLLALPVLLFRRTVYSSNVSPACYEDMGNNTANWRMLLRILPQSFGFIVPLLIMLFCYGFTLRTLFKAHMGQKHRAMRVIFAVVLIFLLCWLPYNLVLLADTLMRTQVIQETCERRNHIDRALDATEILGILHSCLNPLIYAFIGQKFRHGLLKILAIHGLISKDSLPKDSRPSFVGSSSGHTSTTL
Format: cell membranes, Membrane. To be noted: cho-k1.
Sequence of C-C chemokine receptor type 5 (P51681 whole entry): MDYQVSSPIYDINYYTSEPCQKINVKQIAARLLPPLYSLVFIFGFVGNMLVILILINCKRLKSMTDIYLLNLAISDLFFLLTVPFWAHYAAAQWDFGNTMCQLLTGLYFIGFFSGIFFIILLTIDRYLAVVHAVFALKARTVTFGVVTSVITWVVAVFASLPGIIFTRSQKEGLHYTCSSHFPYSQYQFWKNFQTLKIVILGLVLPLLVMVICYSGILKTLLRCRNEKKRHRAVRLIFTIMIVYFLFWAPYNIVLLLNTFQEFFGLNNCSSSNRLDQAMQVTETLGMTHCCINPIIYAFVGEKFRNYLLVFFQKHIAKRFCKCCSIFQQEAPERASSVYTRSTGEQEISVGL
On to `O=C(O)c1cccnc1` [NIACIN], for which the IC50 entry is recorded as “Not Active”.
Still for that read-out and setting: in the case of `CNC(=C[N+](=O)[O-])NCCSCc1csc(CN(C)C)n1` [NIZATIDINE] it was “Not Active”; in that of `C[C@]12C/C(=C/O)C(=O)C[C@@H]1CC[C@@H]1[C@@H]2CC[C@@]2(C)[C@H]1CC[C@]2(C)O` [OXYMETHOLONE], “Not Active”.
In the case of `CC(C)(CO)C(O)C(=O)NCCCO` (stereo unspecified) [PANTHENOL], the IC50 result is “Not Active”.
Still for that read-out and setting: in the case of `OCCN1CCN(CCCN2c3ccccc3Sc3ccc(Cl)cc32)CC1` [PERPHENAZINE] it was “Not Active”; in that of `CCCCC1C(=O)N(c2ccccc2)N(c2ccccc2)C1=O` [PHENYLBUTAZONE], “Not Active”.
As for `Cc1cccc(Nc2cc(Cl)nc(SCC(=O)O)n2)c1C` [PIRINIXIC ACID], the IC50 result was “Not Active”.

For another test, the target named is T2, Alpha-1D adrenergic receptor (Homo sapiens, UniProt P25100). Note: in other assays of this panel Not Active means under 50% inhibition at 10 µM.
T2 sequence (P25100 whole entry): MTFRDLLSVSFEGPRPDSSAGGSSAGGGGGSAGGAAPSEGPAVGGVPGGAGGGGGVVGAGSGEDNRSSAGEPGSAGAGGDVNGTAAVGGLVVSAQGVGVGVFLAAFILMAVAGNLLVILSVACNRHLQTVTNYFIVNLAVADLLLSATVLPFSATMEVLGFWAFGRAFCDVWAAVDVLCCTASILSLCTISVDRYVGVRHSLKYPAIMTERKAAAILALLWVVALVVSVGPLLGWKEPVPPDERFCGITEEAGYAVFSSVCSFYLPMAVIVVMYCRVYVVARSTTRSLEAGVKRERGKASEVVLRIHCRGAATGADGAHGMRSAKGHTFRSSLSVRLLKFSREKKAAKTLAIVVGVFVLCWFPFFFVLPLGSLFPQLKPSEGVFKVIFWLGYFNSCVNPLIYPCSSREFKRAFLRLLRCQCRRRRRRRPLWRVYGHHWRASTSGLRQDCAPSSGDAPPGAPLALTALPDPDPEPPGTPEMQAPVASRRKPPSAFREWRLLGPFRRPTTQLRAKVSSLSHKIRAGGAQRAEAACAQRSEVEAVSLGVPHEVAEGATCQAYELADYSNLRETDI
Format: cell membranes, HEK293, Membrane. To be noted: hek293.
With `O=C(O)c1cccnc1` [NIACIN], the IC50 entry is given as “Not Active”.
As for `CNC(=C[N+](=O)[O-])NCCSCc1csc(CN(C)C)n1` [NIZATIDINE], the IC50 entry is “Not Active”.
Consider `C[C@]12C/C(=C/O)C(=O)C[C@@H]1CC[C@@H]1[C@@H]2CC[C@@]2(C)[C@H]1CC[C@]2(C)O` [OXYMETHOLONE], for which the IC50 entry is given as “Not Active”.
Same read-out and setting: in the case of `CC(C)(CO)C(O)C(=O)NCCCO` (stereo unspecified) [PANTHENOL] it was “Not Active”; in that of `OCCN1CCN(CCCN2c3ccccc3Sc3ccc(Cl)cc32)CC1` [PERPHENAZINE], “Not Active”; in that of `CCCCC1C(=O)N(c2ccccc2)N(c2ccccc2)C1=O` [PHENYLBUTAZONE], “Not Active”.
Still for that read-out and setting: in the case of `Cc1cccc(Nc2cc(Cl)nc(SCC(=O)O)n2)c1C` [PIRINIXIC ACID] it was “Not Active”.

In another test the target is T3, Nitric oxide synthase, inducible (Mus musculus, UniProt P29477).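 Note: inhibition of iNOS enzyme activity measured with L-arginine as substrate; in other assays of this panel Not Active means under 50% inhibition at 10 µM.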
T3 sequence (P29477 whole entry): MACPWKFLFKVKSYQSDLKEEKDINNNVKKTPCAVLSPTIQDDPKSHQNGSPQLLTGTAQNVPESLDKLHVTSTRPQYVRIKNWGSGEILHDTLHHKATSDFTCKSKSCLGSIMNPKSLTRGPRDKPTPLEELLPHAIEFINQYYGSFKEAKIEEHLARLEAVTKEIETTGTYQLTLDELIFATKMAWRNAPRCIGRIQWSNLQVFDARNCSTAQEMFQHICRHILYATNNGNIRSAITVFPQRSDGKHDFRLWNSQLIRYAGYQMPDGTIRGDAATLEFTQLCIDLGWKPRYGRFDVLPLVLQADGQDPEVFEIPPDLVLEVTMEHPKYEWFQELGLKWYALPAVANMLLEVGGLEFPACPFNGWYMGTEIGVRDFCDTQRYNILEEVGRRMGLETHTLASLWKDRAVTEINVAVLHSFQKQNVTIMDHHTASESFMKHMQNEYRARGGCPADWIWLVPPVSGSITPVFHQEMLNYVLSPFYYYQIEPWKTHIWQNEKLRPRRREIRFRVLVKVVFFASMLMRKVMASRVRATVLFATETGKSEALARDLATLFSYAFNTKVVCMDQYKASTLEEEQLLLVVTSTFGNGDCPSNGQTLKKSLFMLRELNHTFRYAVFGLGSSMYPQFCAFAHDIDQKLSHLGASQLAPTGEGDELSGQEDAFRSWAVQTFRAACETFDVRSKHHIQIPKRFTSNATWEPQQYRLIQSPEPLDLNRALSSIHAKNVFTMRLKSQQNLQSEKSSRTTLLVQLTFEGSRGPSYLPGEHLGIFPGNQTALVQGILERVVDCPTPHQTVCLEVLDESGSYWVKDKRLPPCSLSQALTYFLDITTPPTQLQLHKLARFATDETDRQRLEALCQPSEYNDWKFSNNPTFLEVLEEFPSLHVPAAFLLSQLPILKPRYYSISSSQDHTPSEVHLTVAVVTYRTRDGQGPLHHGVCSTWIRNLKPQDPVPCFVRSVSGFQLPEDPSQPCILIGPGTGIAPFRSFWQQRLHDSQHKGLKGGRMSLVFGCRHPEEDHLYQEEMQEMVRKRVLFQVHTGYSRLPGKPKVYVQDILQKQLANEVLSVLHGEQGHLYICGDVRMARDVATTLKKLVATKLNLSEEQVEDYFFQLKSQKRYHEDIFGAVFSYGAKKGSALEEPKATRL
Further details: species or system Escherichia coli.
Conditions: not given
As to `O=C(O)c1cccnc1` [NIACIN], the IC50 entry was “Not Active”.
Regarding `CNC(=C[N+](=O)[O-])NCCSCc1csc(CN(C)C)n1` [NIZATIDINE], the IC50 entry was “Not Active”.
With `C[C@]12C/C(=C/O)C(=O)C[C@@H]1CC[C@@H]1[C@@H]2CC[C@@]2(C)[C@H]1CC[C@]2(C)O` [OXYMETHOLONE], the IC50 result was “Not Active”.
On the same count and under the same terms, next, `CC(C)(CO)C(O)C(=O)NCCCO` (stereo unspecified) [PANTHENOL]: “Not Active”.
As for `OCCN1CCN(CCCN2c3ccccc3Sc3ccc(Cl)cc32)CC1` [PERPHENAZINE], the IC50 entry was “Not Active”.
`CCCCC1C(=O)N(c2ccccc2)N(c2ccccc2)C1=O` [PHENYLBUTAZONE]: the IC50 entry is reported as “Not Active”.
As to `Cc1cccc(Nc2cc(Cl)nc(SCC(=O)O)n2)c1C` [PIRINIXIC ACID], the IC50 entry is given as “Not Active”.

A further test concerns the target C-C chemokine receptor type 5 (Homo sapiens, UniProt P51681). It counts as cell membranes, Membrane. To be noted: hek293. Note: in other assays of this panel Not Active means under 50% inhibition at 10 µM.
On to `O=C(O)c1cccnc1` [NIACIN], for which the IC50 entry is reported as “Not Active”.
With `CNC(=C[N+](=O)[O-])NCCSCc1csc(CN(C)C)n1` [NIZATIDINE], the IC50 entry was “Not Active”.
As for `C[C@]12C/C(=C/O)C(=O)C[C@@H]1CC[C@@H]1[C@@H]2CC[C@@]2(C)[C@H]1CC[C@]2(C)O` [OXYMETHOLONE], the IC50 result is on record as “Not Active”.
Still for that read-out and setting: next, `CC(C)(CO)C(O)C(=O)NCCCO` (stereo unspecified) [PANTHENOL]: “Not Active”; `OCCN1CCN(CCCN2c3ccccc3Sc3ccc(Cl)cc32)CC1` [PERPHENAZINE]: “Not Active”; `CCCCC1C(=O)N(c2ccccc2)N(c2ccccc2)C1=O` [PHENYLBUTAZONE]: “Not Active”.
For the compound `Cc1cccc(Nc2cc(Cl)nc(SCC(=O)O)n2)c1C` [PIRINIXIC ACID], the IC50 entry is “Not Active”.

The next test deals with T4, Vasoactive intestinal polypeptide receptor 1 (Homo sapiens, UniProt P32241).
T4 sequence (P32241 whole entry): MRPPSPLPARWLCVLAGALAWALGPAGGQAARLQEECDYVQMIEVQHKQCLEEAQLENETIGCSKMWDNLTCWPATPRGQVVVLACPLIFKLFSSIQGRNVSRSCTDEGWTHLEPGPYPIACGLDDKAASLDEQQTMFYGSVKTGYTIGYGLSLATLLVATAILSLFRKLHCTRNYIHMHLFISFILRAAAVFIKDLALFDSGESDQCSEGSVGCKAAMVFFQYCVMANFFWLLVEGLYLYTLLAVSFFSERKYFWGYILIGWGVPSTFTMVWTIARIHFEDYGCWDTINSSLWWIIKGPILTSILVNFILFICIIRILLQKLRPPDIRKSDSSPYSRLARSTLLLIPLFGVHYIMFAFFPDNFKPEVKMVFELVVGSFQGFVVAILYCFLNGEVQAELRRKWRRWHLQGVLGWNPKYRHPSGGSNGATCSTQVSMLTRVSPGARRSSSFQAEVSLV
Format: cell membranes, Membrane. As to conditions: ht-29.
`O=C(O)c1cccnc1` [NIACIN]: the IC50 entry was “Not Active”.
Turning to `CNC(=C[N+](=O)[O-])NCCSCc1csc(CN(C)C)n1` [NIZATIDINE], the IC50 result is recorded as “Not Active”.
`C[C@]12C/C(=C/O)C(=O)C[C@@H]1CC[C@@H]1[C@@H]2CC[C@@]2(C)[C@H]1CC[C@]2(C)O` [OXYMETHOLONE]: the IC50 entry is listed as “Not Active”.
On to `CC(C)(CO)C(O)C(=O)NCCCO` (stereo unspecified) [PANTHENOL], for which the IC50 result is on record as “Not Active”.
On to `OCCN1CCN(CCCN2c3ccccc3Sc3ccc(Cl)cc32)CC1` [PERPHENAZINE], for which the IC50 entry is given as “Not Active”.
As for `CCCCC1C(=O)N(c2ccccc2)N(c2ccccc2)C1=O` [PHENYLBUTAZONE], the IC50 result is reported as “Not Active”.
Consider `Cc1cccc(Nc2cc(Cl)nc(SCC(=O)O)n2)c1C` [PIRINIXIC ACID], for which the IC50 result is on record as “Not Active”.

System in the next test: not listed separately
The experiment in a line: DRUGMATRIX: Platelet-Derived Growth Factor (PDGF) radioligand binding (ligand: [125I] PDGF). To be noted: nih3t3; Not Active = under 50% inhibition at 10 µM. Format: cell-based.
On to `O=C(O)c1cccnc1` [NIACIN], for which the IC50 entry is recorded as “Not Active” and the Ki result is reported as “Not Active”.
As to `CNC(=C[N+](=O)[O-])NCCSCc1csc(CN(C)C)n1` [NIZATIDINE], the IC50 result is on record as “Not Active” and the Ki result is given as “Not Active”.
On to `C[C@]12C/C(=C/O)C(=O)C[C@@H]1CC[C@@H]1[C@@H]2CC[C@@]2(C)[C@H]1CC[C@]2(C)O` [OXYMETHOLONE], for which the IC50 result was “Not Active” and the Ki entry is listed as “Not Active”.
For the compound `CC(C)(CO)C(O)C(=O)NCCCO` (stereo unspecified) [PANTHENOL], the IC50 result is listed as “Not Active” and the Ki entry is recorded as “Not Active”.
Regarding `OCCN1CCN(CCCN2c3ccccc3Sc3ccc(Cl)cc32)CC1` [PERPHENAZINE], the IC50 entry was “Not Active” and the Ki result is on record as “Not Active”.
For `CCCCC1C(=O)N(c2ccccc2)N(c2ccccc2)C1=O` [PHENYLBUTAZONE], the IC50 result is “Not Active” and the Ki entry is given as “Not Active”.
For `Cc1cccc(Nc2cc(Cl)nc(SCC(=O)O)n2)c1C` [PIRINIXIC ACID], the IC50 result is reported as “Not Active” and the Ki result is on record as “Not Active”.

For another test, the target named is Kappa-type opioid receptor (Homo sapiens, UniProt P41145). In words: DRUGMATRIX: Opiate kappa (OP2, KOP) radioligand binding (ligand: [3H] Diprenorphine). It counts as cell membranes, HEK293, Membrane. As to conditions: hek293; Not Active = under 50% inhibition at 10 µM.
Sequence of Kappa-type opioid receptor (P41145 whole entry): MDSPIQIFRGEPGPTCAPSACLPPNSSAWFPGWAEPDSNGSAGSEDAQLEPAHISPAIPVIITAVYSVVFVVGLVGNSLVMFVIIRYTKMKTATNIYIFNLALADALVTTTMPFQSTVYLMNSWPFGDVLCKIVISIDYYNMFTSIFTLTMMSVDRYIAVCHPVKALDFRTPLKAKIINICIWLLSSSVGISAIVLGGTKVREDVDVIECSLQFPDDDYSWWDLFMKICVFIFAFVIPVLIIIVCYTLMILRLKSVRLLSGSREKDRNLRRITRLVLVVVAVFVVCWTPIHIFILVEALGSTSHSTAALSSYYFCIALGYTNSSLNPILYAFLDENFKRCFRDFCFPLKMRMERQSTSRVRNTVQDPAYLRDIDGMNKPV
Take `O=C(O)c1cccnc1` [NIACIN]: the IC50 entry is reported as “Not Active”.
For `CNC(=C[N+](=O)[O-])NCCSCc1csc(CN(C)C)n1` [NIZATIDINE], the IC50 entry was “Not Active”.
Consider `C[C@]12C/C(=C/O)C(=O)C[C@@H]1CC[C@@H]1[C@@H]2CC[C@@]2(C)[C@H]1CC[C@]2(C)O` [OXYMETHOLONE], for which the IC50 result was “Not Active”.
Still for that read-out and setting: in the case of `CC(C)(CO)C(O)C(=O)NCCCO` (stereo unspecified) [PANTHENOL] it was “Not Active”.
On to `OCCN1CCN(CCCN2c3ccccc3Sc3ccc(Cl)cc32)CC1` [PERPHENAZINE], for which the IC50 result is reported as “Not Active”.
Consider `CCCCC1C(=O)N(c2ccccc2)N(c2ccccc2)C1=O` [PHENYLBUTAZONE], for which the IC50 entry was “Not Active”.
In the case of `Cc1cccc(Nc2cc(Cl)nc(SCC(=O)O)n2)c1C` [PIRINIXIC ACID], the IC50 entry is “Not Active”.

The record behind these values is ChEMBL document CHEMBL1909046, “DrugMatrix in vitro pharmacology data”.
